# How the values were obtained:
# [1] = test system: T cells; test: T cell survival and BCL2 expression after 10 days expansion in DCA (CellTrace Violet, flow cytometry); format: cell-based
# Protocol: The impact of a PDHK1 inhibitor (DCA) on T cell survival was assessed by measuring expression of anti-apoptotic BLC2. […] The T cells were activated and expanded as described in Example 1, except the labeled PBMCs were cultured in media containing IL-2 for 48 hours, and the T cells were cultured in DCA or control conditions for 10 days. Experimental expansion conditions included culturing in 5 mM DCA or 10 mM DCA. Control conditions included 5 mM of glycolysis inhibitor 2-deoxyglucose (2DG), low glucose media, or PBS. The impact of DCA on T cell survival was assayed by evaluating CellTrace® Violet dilution with flow cytometry. Fresh X-VIVO®-15-based culture medium containing IL-2 and DCA or 2DG was added to the T cell cultures every two to three days for a total of ten days to permit outgrowth and expansion of the T cells.
# A pairwise T test was performed on all day ten cultures (each concentration of DCA was compared to 0 mM DCA: *p<0.05, **p<0.01).
# [2] = test system: T cells; test: Metabolic flux rate experiments (OCR, ECAR) in T cells expanded in DCA; format: cell-based, mouse
# Description: The methods provided herein can include measurement of plural extracellular solutes and adjacent living cells disposed, for example, in a well of a multiwell microplate.
# This apparatus can include an array of submersible sensors that enable rapid coordinated sensor stabilization within multiple cell-containing wells. It also includes compound storage and delivery apparatus, a pneumatic multiplexer, a structure for adding fluids to subsets or all of the multiple wells simultaneously, and a sensor structure permitting non-destructive measurement of the effect of addition of exogenous fluid to the respective wells, in combination with the ability to make and repeat measurements rapidly. Furthermore, the apparatus is designed to exploit a cartridge structure which permits repeated use of the apparatus for disparate cellular assays without requiring intermediate cleaning, and while eliminating the possibility of cross contamination between tests.
# In use, the first step in a measurement sequence with the Seahorse XF instrument is the exchange of cell media to a type containing nearly no bicarbonate or other pH buffer in order to maximize the pH change caused by cellular proton flux.
# Next, measurement probes fitted with an optical oxygen and pH sensor were placed in each well, and were raised and lowered to mix the cell media for approximately five minutes. Third, each probe was lowered into the cell media to stop at a precise point above the cells such that approximately 25 μL of media was sequestered in a way that impeded the diffusion of oxygen molecules and protons to the larger volume of media in the well. Fourth, a series of optical measurements of the two sensors on the probe bottom (in contact with the small volume of media above the cells) were made at intervals of 8 seconds and for a period of five minutes. Typically, the dissolved oxygen level decreased by approximately 10% and the pH decreased by approximately 0.1 units. A simple linear fit to the rate of change of oxygen and pH were used to determine the OCR and ECAR for each well. […]
# [3] = test system: T cells; test: Mitochondrial mass by MitoTracker FM in T cells cultured in DCA; format: cell-based, mouse; settings: after culture in 5 mM DCA, FIG. 4E
# [4] = test system: human T cells; test: Metabolic flux rate experiments (OCR, SRC) in human T cells expanded in DCA; format: cell-based
# Protocol: Metabolic flux rate experiments were performed to determine whether human T cells expanded in DCA show improved mitochondrial respiratory capacity. This example identically replicates the methods described in Example 3, except human T cells were used (derived from human healthy donor blood).
# Metabolic flux rate measurements were performed using the CellDoctor™ device and methods described above. The CellDoctor™ device was configured to measure oxygen consumption rate (OCR) and extracellular acidification rate (ECAR), corresponding to proton flux, of cells that are adherent to the bottom of 24 well microplates. As described above, flux rate experiments were performed in a human T cell line expanded in either 5 mM DCA or a control group without DCA. FIG. 6A illustrates the use of an activation step (CD3/CD28) for 48 hours and a culturing step (Ctrl/DCA) for 10 days as described in Example 2.
# [5] = test system: tumor-infiltrating T cells; test: Metabolic flux rate experiment (OCR) in tumor-infiltrating T cells of melanoma patients expanded in vitro with DCA; format: cell-based, human; settings: patient TIL expanded 10 days, FIG. 7B
# Description: Patient samples and PBMC samples were obtained from melanoma patients who were enrolled on institutional review board approved protocols. Cells from 5 different patients were used. PBMC were cryopreserved in 90% FBS plus 10% DMSO (Sigma, St. Louis. MO).
# (§1) This method included obtaining a sample of tumor from a patient suffering from metastatic melanoma, making a single cell suspension, and expanding the T cells in a cell culture medium with IL-2 present in a concentration of 6000 IU/mL+/−DCA in addition to anti-CD3/anti-CD28 antibodies for a period of 10 days.
# Metabolic flux rate experiments measuring OCR were also performed as described above.
# [6] = test system: tumor-infiltrating T cells; test: Signaling analysis of patient tumor-infiltrating T cells expanded with DCA (PD-1, Tim-3, IFN-gamma, TNF-alpha); format: cell-based, human; settings: patient TIL expanded with DCA, FIG. 7C
# Protocol: as §1
# Signaling analysis were performed as described above.
# [7] = test system: human anti-CD19 CAR-T cells; test: Metabolic flux rate experiments in human anti-CD19 CAR-T cells generated with DCA; format: cell-based; settings: 5 mM DCA relative to hCD19 CAR, FIG. 8B
# Protocol: On the first day (“day 0”), 1) fresh or frozen peripheral blood mononuclear (PBMCs) are seeded at 10×10^6 cells/10 mL in a T25 culture flask in T Cell Growth Media (TCGM), and 2) T cell stimulation cocktail is added to a final concentration of 50 ng/mL anti-CD3, 50 ng/mL anti-CD28, and 250 IU/mL IL-2. […] On day 3, 5) lentiviral supernatant is removed, and 6) cells are fed with new media to a concentration of 3×10^5 cells/mL and 5 mM DCA. On day 4, 7) a transfer of 5×10^6 cells/condition is made to G-Rex® 6 multi-well plates, filling TCGM+5 mM DCA to a volume of 100 mL/well. […] On day 10, 9) cells are frozen down to a concentration of 100×10^6 cells/mL. Standard T Cell Growth Media includes: 930 mL X-VIVO®-15 cell medium, 50 ml Human AB Serum, 10 ml 100× GlutaMAX® supplement, and 10 mL 1M HEPES.
# FMC63 (human CD19 targeted CAR) human T cells were generated in the presence or absence of DCA. These cells were used to treat mice bearing A549 lung cancer tumors that were engineered to express hCD19.
# Controls were prepared and human anti-CD19 CAR-T cells were cultured as described above. Metabolic flux rate experiments measuring OCR were also performed as described above.
# [8] = test system: EGFR BBz CAR-T cells; test: Metabolic flux rate experiments (OCR, ECAR) in EGFR BBz CAR-T cells expanded with DCA; format: cell-based; settings: for OCR analysis (metabolic phenotype): FIG. 9A; for ECAR analysis (metabolic phenotype): FIG. 9B
# Protocol: Immunodeficient mice with a solid tumor (unmodified A549) were treated with adoptively transferred EGFR BBz CAR T cells that were expanded either in the presence or absence of DCA.
# FIGS. 9A-9C depict metabolic flux rate experiments and flow cytometry measurements, showing that DCA can metabolically enhance a solid-tumor targeted CAR.
# The UTD control was prepared as described above. Metabolic flux rate experiments and T cell preparation were performed as described above.
# [9] = test system: T cells; test: Cytokine synthesis on restimulation after switch to low or high nutrient conditions; format: cell-based
# Description: FIG. 15A is a schematic of the experimental protocol for FIGS. 15B and 15C.
# [10] = 5 mM DCA relative to UTD control
# [11] = 10 mM DCA relative to UTD control
compound,measurement,setting,value
"O=C(O)C(Cl)Cl [DCA, dichloroacetic acid]",T cell survival,[1]; T cells cultured in 5 mM or 10 mM DCA for 10 days vs 0 mM DCA,significantly increased
same,expression of the anti-apoptotic factor BCL2,"[1]; T cells cultured in DCA for 10 days, FIG. 3",enhanced expression
same,OCR after sequential injection of FCCP and 2DG,"[2]; T cells expanded in 5 mM DCA vs control cells, FIG. 4A",OCR increased
same,increase in OCR over baseline,"[2]; T cells expanded in 5 mM DCA, FIG. 4B",at least 30%
same,increase in ECAR over baseline,"[2]; T cells expanded in 5 mM DCA, FIG. 4C",at least 10 mpH/min
same,mitochondrial mass (MitoTracker FM),[3],increased
same,"Spare Respiratory Capacity (SRC, OCRmax-OCRbasal)","[4]; human T cells expanded in 5 mM DCA versus control, FIG. 6D",at least 60
same,increase in OCR over baseline,"[4]; human T cells expanded in 5 mM DCA, FIG. 6C",at least 20 pmol/min
same,OCR over time,"[4]; human T cells, CD3/CD28 48 hours then 5 mM DCA 10 days vs control, FIG. 6B",dramatic increase
same,OCR at serial time points (metabolic phenotype),[5]; 5 mM DCA relative to TIL control,superior metabolic phenotype
same,OCR at serial time points (metabolic phenotype),[5]; 10 mM DCA relative to TIL control,superior metabolic phenotype
same,cytokine production (IFN-gamma and TNF-alpha),[6],increase in cytokine production
same,ratio of PD-1 negative T cells to PD-1 positive T cells,[6],increasing ratio
same,ratio of Tim-3 negative T cells to Tim-3 positive T cells,[6],increasing ratio
same,OCR at serial time points (metabolic phenotype),[7],superior metabolic and therapeutic phenotype
same,OCR analysis (metabolic phenotype),[8]; [10],superior metabolic phenotype
same,ECAR analysis (metabolic phenotype),[8]; [10],superior metabolic phenotype
same,OCR analysis (metabolic phenotype),[8]; [11],superior metabolic phenotype
same,ECAR analysis (metabolic phenotype),[8]; [11],superior metabolic phenotype
same,cytokine synthesis when restimulated after expansion,"[9]; cells cultured with DCA for 7 days, then low or high nutrient conditions for 14 hours, FIG. 15B-15C",more proficient at synthesizing cytokines
same,resistance to stress in low nutrient conditions,"[9]; low nutrient: 1 mM glucose+0 mM pyruvate, 14 hours",more resistant to stress

# Source: patent publication US20230381312A1, “REDIRECTING GLUCOSE METABOLISM TO LIMIT STRESS AND IMPROVE ADOPTIVE CELL THERAPY” (University of Pittsburgh - Of the Commonwealth System of …, priority 2020, published 2023)
